# Laboratory results reported in ChEMBL document CHEMBL2417377, “Hit-to-lead optimization and kinase selectivity of imidazo[1,2-a]quinoxalin-4-amine derived JNK1 inhibitors” (Bioorg Med Chem Lett, 2013).
# Tests used:
# Settings in all cases: PC-3
# [1] = target: T1, Ephrin type-A receptor 1 (Homo sapiens) (UniProt P21709); assay: Inhibition of EphA1 in human PC3 cell lysates at 10 uM using desthiobiotin-tagged ATP probe AX9989 followed by trypsinization by LC/MS analysis
# T1 sequence (whole entry): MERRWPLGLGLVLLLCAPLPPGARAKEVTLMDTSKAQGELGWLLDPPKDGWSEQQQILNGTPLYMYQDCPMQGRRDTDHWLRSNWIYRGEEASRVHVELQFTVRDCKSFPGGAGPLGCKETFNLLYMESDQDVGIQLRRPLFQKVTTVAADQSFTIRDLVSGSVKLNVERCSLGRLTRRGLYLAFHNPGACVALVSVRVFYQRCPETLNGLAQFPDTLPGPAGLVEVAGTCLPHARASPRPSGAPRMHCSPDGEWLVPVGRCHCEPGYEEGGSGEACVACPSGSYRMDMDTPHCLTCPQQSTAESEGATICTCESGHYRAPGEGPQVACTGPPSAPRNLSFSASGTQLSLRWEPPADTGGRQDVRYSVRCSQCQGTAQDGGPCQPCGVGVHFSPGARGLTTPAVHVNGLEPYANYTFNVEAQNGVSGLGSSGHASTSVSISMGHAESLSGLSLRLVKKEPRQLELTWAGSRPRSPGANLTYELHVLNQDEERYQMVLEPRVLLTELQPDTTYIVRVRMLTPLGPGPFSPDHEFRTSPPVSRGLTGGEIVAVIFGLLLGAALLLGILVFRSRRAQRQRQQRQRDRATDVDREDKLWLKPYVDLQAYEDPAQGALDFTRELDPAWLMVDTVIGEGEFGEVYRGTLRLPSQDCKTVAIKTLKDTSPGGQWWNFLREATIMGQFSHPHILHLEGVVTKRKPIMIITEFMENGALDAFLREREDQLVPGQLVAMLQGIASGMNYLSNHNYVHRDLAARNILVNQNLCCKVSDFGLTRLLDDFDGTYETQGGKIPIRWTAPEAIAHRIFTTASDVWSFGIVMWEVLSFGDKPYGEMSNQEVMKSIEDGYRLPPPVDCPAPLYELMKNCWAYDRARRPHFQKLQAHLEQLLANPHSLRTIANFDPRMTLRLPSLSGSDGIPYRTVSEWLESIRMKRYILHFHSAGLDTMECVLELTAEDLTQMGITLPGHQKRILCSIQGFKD
# [2] = target: T2, Eukaryotic elongation factor 2 kinase (Homo sapiens) (UniProt O00418); assay: Inhibition of eEF2K in human PC3 cell lysates at 10 uM using desthiobiotin-tagged ATP probe AX9989 followed by trypsinization by LC/MS analysis
# T2 sequence (whole entry): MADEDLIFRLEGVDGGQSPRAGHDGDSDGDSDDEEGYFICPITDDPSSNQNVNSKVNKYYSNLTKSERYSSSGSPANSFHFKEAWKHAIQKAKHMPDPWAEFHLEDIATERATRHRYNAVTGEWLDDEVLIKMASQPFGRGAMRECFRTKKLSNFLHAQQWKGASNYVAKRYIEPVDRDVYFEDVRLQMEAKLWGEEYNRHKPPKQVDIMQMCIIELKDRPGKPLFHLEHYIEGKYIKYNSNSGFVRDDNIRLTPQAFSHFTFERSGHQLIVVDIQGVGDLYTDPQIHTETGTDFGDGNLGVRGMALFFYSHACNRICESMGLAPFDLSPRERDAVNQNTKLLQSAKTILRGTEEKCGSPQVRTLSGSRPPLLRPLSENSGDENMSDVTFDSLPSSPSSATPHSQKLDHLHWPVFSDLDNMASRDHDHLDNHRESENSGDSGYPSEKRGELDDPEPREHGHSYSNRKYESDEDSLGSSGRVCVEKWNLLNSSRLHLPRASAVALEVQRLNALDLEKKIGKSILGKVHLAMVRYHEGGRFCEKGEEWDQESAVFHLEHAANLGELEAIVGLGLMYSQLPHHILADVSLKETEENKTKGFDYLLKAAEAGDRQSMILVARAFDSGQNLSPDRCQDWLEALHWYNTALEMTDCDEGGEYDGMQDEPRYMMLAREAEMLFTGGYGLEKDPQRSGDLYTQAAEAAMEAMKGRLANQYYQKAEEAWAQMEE
# [3] = target: T3, Serine/threonine-protein kinase STK11 (Homo sapiens) (UniProt Q15831); assay: Inhibition of LKB1 in human PC3 cell lysates at 10 uM using desthiobiotin-tagged ATP probe AX9989 followed by trypsinization by LC/MS analysis
# T3 sequence (whole entry): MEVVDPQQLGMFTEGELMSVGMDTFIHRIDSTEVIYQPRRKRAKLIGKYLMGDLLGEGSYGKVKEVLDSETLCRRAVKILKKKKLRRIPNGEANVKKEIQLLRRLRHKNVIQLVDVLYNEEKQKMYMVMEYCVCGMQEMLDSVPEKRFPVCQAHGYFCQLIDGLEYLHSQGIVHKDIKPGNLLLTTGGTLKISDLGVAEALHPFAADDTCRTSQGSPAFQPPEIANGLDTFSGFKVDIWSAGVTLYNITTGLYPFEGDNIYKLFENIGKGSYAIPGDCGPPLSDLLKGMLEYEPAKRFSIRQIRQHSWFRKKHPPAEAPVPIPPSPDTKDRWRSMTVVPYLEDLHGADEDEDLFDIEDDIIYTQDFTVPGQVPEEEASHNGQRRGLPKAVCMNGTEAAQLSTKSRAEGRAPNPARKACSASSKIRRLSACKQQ
# [4] = target: Ribosomal protein S6 kinase beta-1 (Homo sapiens) (UniProt P23443); assay: Inhibition of p70S6K in human PC3 cell lysates at 10 uM using desthiobiotin-tagged ATP probe AX9989 followed by trypsinization by LC/MS analysis
# Chain of Ribosomal protein S6 kinase beta-1 (Homo sapiens) (P23443 whole entry, looked up): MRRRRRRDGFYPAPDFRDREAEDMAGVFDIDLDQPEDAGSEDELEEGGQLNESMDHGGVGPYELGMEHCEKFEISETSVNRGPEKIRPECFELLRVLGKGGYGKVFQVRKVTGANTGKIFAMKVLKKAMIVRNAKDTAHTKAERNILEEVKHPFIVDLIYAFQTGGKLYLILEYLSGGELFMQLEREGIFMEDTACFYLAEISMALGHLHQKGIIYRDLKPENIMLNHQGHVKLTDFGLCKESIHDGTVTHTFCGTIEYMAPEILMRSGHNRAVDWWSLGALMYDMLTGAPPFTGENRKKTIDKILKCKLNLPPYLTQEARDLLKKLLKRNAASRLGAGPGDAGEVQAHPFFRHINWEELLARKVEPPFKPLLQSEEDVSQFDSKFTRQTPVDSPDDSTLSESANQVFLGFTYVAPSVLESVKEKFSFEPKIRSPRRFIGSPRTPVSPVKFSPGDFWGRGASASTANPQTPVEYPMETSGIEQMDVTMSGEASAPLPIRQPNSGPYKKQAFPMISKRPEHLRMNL
# [5] = target: Microtubule-associated serine/threonine-protein kinase 3 (Homo sapiens, UniProt O60307); assay: Inhibition of MAST3 in human PC3 cell lysates at 10 uM using desthiobiotin-tagged ATP probe AX9989 followed by trypsinization by LC/MS analysis
# Chain of Microtubule-associated serine/threonine-protein kinase 3 (O60307 whole entry): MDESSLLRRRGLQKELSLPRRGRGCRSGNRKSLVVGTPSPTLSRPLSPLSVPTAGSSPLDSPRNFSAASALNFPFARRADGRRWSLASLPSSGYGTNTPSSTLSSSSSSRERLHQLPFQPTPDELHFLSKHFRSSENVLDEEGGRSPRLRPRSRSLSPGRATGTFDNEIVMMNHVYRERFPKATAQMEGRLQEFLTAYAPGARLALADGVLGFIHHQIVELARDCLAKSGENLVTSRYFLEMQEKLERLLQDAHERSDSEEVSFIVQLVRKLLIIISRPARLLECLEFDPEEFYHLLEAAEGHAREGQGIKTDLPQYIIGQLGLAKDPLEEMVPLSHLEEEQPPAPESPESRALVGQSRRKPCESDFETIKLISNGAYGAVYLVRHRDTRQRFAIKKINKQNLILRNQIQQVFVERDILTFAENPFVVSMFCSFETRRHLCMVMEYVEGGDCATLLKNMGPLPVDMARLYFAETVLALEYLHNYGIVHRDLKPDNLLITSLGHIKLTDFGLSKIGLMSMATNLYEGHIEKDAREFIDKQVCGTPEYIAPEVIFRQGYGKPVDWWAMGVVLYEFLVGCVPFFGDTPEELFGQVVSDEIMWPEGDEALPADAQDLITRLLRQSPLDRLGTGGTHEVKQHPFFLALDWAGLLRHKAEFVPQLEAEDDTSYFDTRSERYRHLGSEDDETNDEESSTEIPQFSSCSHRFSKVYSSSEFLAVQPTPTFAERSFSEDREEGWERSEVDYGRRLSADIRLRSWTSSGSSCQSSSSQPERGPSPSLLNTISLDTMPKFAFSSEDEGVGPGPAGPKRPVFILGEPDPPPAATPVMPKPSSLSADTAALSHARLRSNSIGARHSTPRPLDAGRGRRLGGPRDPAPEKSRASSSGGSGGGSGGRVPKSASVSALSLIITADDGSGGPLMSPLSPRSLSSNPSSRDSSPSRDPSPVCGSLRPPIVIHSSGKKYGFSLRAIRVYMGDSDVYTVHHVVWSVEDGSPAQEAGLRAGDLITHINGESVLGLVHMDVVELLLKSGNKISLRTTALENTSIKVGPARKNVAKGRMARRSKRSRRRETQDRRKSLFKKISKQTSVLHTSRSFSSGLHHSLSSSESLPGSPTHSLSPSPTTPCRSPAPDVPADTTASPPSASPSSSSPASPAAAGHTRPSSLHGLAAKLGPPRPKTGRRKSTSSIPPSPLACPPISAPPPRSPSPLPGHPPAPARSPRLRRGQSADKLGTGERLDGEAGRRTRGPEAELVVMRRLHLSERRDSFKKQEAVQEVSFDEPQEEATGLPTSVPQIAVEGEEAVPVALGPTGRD
# [6] = target: T4, Serine/threonine-protein kinase 3 (Homo sapiens) (UniProt Q13188); assay: Inhibition of MST2 in human PC3 cell lysates at 10 uM using desthiobiotin-tagged ATP probe AX9989 followed by trypsinization by LC/MS analysis
# T4 sequence (whole entry): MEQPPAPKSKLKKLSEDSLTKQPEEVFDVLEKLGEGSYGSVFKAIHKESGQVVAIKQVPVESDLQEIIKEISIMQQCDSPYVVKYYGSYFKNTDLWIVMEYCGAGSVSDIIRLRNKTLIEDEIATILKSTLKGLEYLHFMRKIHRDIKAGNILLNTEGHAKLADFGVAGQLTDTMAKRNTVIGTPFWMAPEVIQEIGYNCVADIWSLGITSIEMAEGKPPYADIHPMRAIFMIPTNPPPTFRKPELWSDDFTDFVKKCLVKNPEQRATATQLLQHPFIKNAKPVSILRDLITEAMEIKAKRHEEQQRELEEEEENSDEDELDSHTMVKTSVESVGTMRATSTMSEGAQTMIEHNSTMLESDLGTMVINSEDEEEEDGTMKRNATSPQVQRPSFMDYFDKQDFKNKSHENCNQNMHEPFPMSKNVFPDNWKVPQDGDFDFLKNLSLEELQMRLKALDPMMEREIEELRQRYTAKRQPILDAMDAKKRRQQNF
Compound,inhibition [1],inhibition [2],inhibition [3],inhibition [4],inhibition [5],inhibition [6]
O=C(NC1(c2ccccc2)CC1)c1ccc2nc(N[C@H]3CC[C@H](O)CC3)c3nccn3c2c1,< 35%,< 35%,< 35%,< 35%,98.9%,< 35%
C[C@@H](NC(=O)c1ccc2nc(N[C@H]3CC[C@H](O)CC3)c3nccn3c2c1)c1ccccc1,< 35%,< 35%,< 35%,< 35%,97%,< 35%
O=C(O)c1ccc2nc(N[C@H]3CC[C@H](O)CC3)c3nccn3c2c1,< 35%,< 35%,< 35%,< 35%,< 35%,< 35%
O=C(NC1(c2ccc(F)cc2)CC1)c1ccc2nc(N[C@H]3CC[C@H](O)CC3)c3nccn3c2c1,< 35%,< 35%,< 35%,< 35%,97.6%,< 35%
O=C(NC1(Cc2ccc(F)cc2)CC1)c1ccc2nc(N[C@H]3CC[C@H](O)CC3)c3nccn3c2c1,< 35%,< 35%,< 35%,< 35%,< 35%,< 35%
CC[C@@H](NC(=O)c1ccc2nc(N[C@H]3CC[C@H](O)CC3)c3nccn3c2c1)c1ccccc1,< 35%,< 35%,< 35%,< 35%,96.2%,< 35%
CCC[C@@H](NC(=O)c1ccc2nc(N[C@H]3CC[C@H](O)CC3)c3nccn3c2c1)c1ccccc1,< 35%,< 35%,< 35%,< 35%,90.2%,< 35%
NC(=O)c1ccc2nc(N[C@H]3CC[C@H](O)CC3)c3nccn3c2c1,< 35%,< 35%,< 35%,< 35%,< 35%,< 35%
O=C(N[C@H](CO)c1ccccc1)c1ccc2nc(N[C@H]3CC[C@H](O)CC3)c3nccn3c2c1,< 35%,< 35%,< 35%,< 35%,97.9%,< 35%
CC(C)(NC(=O)c1ccc2nc(N[C@H]3CC[C@H](O)CC3)c3nccn3c2c1)c1ccccc1,< 35%,< 35%,< 35%,< 35%,99.3%,< 35%
C[C@H](NC(=O)c1ccc2nc(N[C@H]3CC[C@H](O)CC3)c3nccn3c2c1)c1ccccc1,< 35%,< 35%,< 35%,< 35%,76.3%,< 35%
O=C(NC1(c2ccccc2)CCC1)c1ccc2nc(N[C@H]3CC[C@H](O)CC3)c3nccn3c2c1,< 35%,< 35%,< 35%,< 35%,99.2%,< 35%
